{
  "source": "patent US20250066351A1",
  "about": "“PYRAZOLO[1,5-A]PYRIDIN-2,3-YL AMIDES AS KV7 CHANNEL ACTIVATORS” (Biohaven Therapeutics Ltd., priority 2022, published 2025)",
  "molecular_target": "T1, hKv7.2/7.3 (Homo sapiens, UniProt O43525+O43526)",
  "T1 construct": "host or cells: HEK cells, tetracycline-inducible expression",
  "assay": "Kv7.2/7.3 Activation Assay, QPatch planar patch-clamp single concentration screen",
  "type": "cell-based",
  "details": "increase in current over baseline, Kv7.2/Kv7.3 co-expressing HEK cells, compound concentration 3 μM, steady-state current at end of 2 s pulse to −30 mV",
  "method": "The ability of compounds to potentiate K-currents in Kv7.2/7.3 containing HEK cells was assessed using planar patch-clamp on the QPatch automated screening platform.\nCell Line: The hKv7.2/7.3 cell line was obtained from Chantest (Cleveland, OH 44128) cat. #CT6147. These HEK cells will express the Kv7.2/7.3 ion channels when induced.\nCell Culture: Cells were maintained in a media containing DMEM/F12; 50/50 (GIBCO cat. #11330), 10% Fetal Bovine Serum (FBS) (GIBCO cat. #26140), 100 units/mL Penicillin-Streptomycin (GIBCO cat. #15140), 0.005 mg/mL Blasticidin (INVIVOGEN cat. #ant-bl-1), 0.5 mg/mL Geneticin (GIBCO cat. #10131), 0.1 mg/mL Zeocin (GIBCO cat. #R25001). Cells used in the electrophysiology assay were maintained in a media without Blasticidin, Geneticin and Zeocin for 2 days and channel expression was induced by adding tetracycline (BIOLINE cat. #BIO-87030) at a final concentration of […]. Cells were grown in T-175 flask to ˜75% confluency. Currents were recorded 24 hours after channel induction.\nCompound Plates: Test compounds were prepared by performing serial dilutions on a Biomek NX^P (BECKMAN COULTER). Final dilutions were made in external recording solution with a final DMSO concentration of 0.1% DMSO. For single concentration screens each plate had 10 μM retigabine as a positive control and 0.1% DMSO as a negative control.\nElectrophysiology: On the day of the experiment cells were washed with Hank's Balanced Salt Solution (HBBS) (GIBCO cat. #14175) and harvested with Tryple (GIBCO cat. #12604). Cells were then centrifuged at 2000 rpm for 5 minutes and resuspended in CHO—S-SFM (GIBCO cat. #12052) at […]. Cells were stirred for 30 minutes before experiments were started. External recording solution contained (in mM): NaCl (145), KCl (4), CaCl2 (2), MgCl2 (1), HEPES (10) and Glucose (10); pH was adjusted to 7.4 with NaOH and the osmolarity was adjusted to 300-305 mOsM with sucrose if necessary. Internal solution contained (in mM): KCl (125), KF (10), EGTA (5), Na2ATP (5), MgCl2 (3.2), HEPES (5); pH was adjusted to 7.2 with KOH and the osmolarity was adjusted to 298-302 mOsM with sucrose.\nPotassium channel activity was measured on the QPatch HTX (Sophion Bioscience) using QPlates with 48-wells/plate. Each cell was taken as an independent experiment and only one compound was tested per well. Potassium channel activity was elicited by holding at −80 mV and stepping to −30 mV for 2 s followed by a 100 ms pulse to −120 mV.\nSingle concentration screen: Baseline conditions were obtained by recording 5 sweeps in the external solution only, this was repeated for three applications of the external solution. The effect of test compounds on elicited current was then assessed by recording 5 sweeps in the presence of a 3 μM compound solution. The steady-state current at the end of the 2 s pulse to −30 mV was measured to determine the fold increase from baseline.",
  "data": [
    {"smiles": "CC(C)(C)CC(=O)Nc1nn2ccccc2c1C1CCC1", "note": "[Example 1, N-(3-cyclobutylpyrazolo[1,5-a]pyridin-2-yl)-3,3-dimethylbutanamide]", "values": [
      {"measurement": "QPatch Kv7.2/7.3 Activity", "result": "+ (2.0-3.99 (+))"}
    ]},
    {"smiles": "CC(C)(C)CC(=O)Nc1nn2ccc(C(F)(F)F)cc2c1C1CCC1", "note": "[Example 2, N-(3-cyclobutyl-5-(trifluoromethyl)pyrazolo [1,5-a]pyridin-2-yl)-3,3-dimethylbutanamide]", "values": [
      {"measurement": "QPatch Kv7.2/7.3 Activity", "result": "+ (2.0-3.99 (+))"}
    ]},
    {"smiles": "O=C(CC(C(F)(F)F)C(F)(F)F)Nc1nn2ccccc2c1C1CCC1", "note": "[Example 4, N-(3-cyclobutylpyrazolo[1,5-a]pyridin-2-yl)-4,4,4-trifluoro-3-(trifluoromethyl) butanamide]", "values": [
      {"measurement": "QPatch Kv7.2/7.3 Activity", "result": "+/− (1.2-1.99-fold (+/−))"}
    ]},
    {"smiles": "O=C(CC(C(F)(F)F)C(F)(F)F)Nc1nn2ccc(C(F)(F)F)cc2c1C1CCC1", "note": "[Example 5, N-(3-cyclobutyl-5-(trifluoromethyl)pyrazolo [1,5-a]pyridin-2-yl)-4,4,4-trifluoro-3-(trifluoromethyl) butanamide]", "values": [
      {"measurement": "QPatch Kv7.2/7.3 Activity", "result": "+/− (1.2-1.99-fold (+/−))"}
    ]},
    {"smiles": "CC(C)[C@H](C)C(=O)Nc1nn2ccccc2c1C1CCC1", "note": "[Example 6, (S)-N-(3-cyclobutylpyrazolo[1,5-a]pyridin-2-yl)-2,3-dimethylbutanamide]", "values": [
      {"measurement": "QPatch Kv7.2/7.3 Activity", "result": "+ (2.0-3.99 (+))"}
    ]},
    {"smiles": "CC(C)[C@H](C)C(=O)Nc1nn2ccc(C(F)(F)F)cc2c1C1CCC1", "note": "[Example 7, (S)-N-(3-cyclobutyl-5-(trifluoromethyl)pyrazolo [1,5-a]pyridin-2-yl)-2,3-dimethylbutanamide]", "values": [
      {"measurement": "QPatch Kv7.2/7.3 Activity", "result": "+ (2.0-3.99 (+))"}
    ]},
    {"smiles": "CC(C)[C@H](C)C(=O)Nc1nn2ccc(C#N)cc2c1C1CCC1", "note": "[Example 8, (S)-N-(5-cyano-3-cyclobutylpyrazolo[1,5-a]pyridin-2-yl)-2,3-dimethylbutanamide]", "values": [
      {"measurement": "QPatch Kv7.2/7.3 Activity", "result": "+ (2.0-3.99 (+))"}
    ]},
    {"smiles": "CC(C)(O)CC(=O)Nc1nn2ccccc2c1C1CCC1", "note": "[Example 9, N-(3-cyclobutylpyrazolo[1,5-a]pyridin-2-yl)-3-hydroxy-3-methylbutanamide]", "values": [
      {"measurement": "QPatch Kv7.2/7.3 Activity", "result": "− (<1.2-fold (−))"}
    ]},
    {"smiles": "CC(C)(O)CC(=O)Nc1nn2ccc(C(F)(F)F)cc2c1C1CCC1", "note": "[Example 10, N-(3-cyclobutyl-5-(trifluoromethyl)pyrazolo [1,5-a]pyridin-2-yl)-3-hydroxy-3-methylbutanamide]", "values": [
      {"measurement": "QPatch Kv7.2/7.3 Activity", "result": "+ (2.0-3.99 (+))"}
    ]},
    {"smiles": "CC(C)(O)CC(=O)Nc1nn2ccc(C#N)cc2c1C1CCC1", "note": "[Example 11, N-(5-cyano-3-cyclobutylpyrazolo[1,5-a]pyridin-2-yl)-3-hydroxy-3-methylbutanamide]", "values": [
      {"measurement": "QPatch Kv7.2/7.3 Activity", "result": "+/− (1.2-1.99-fold (+/−))"}
    ]},
    {"smiles": "CC(C)(O)CC(=O)Nc1nn2ccc(Br)cc2c1C1CCC1", "note": "[Example 12, N-(5-bromo-3-cyclobutylpyrazolo[1,5-a]pyridin-2-yl)-3-hydroxy-3-methylbutanamide]", "values": [
      {"measurement": "QPatch Kv7.2/7.3 Activity", "result": "+ (2.0-3.99 (+))"}
    ]},
    {"smiles": "CC(C)(O)CC(=O)Nc1nn2ccc(C(F)(F)F)cc2c1-c1ccccc1", "note": "[Example 13, 3-hydroxy-3-methyl-N-(3-phenyl-5-(trifluoromethyl)pyrazolo [1,5-a]pyridin-2-yl)butanamide]", "values": [
      {"measurement": "QPatch Kv7.2/7.3 Activity", "result": "+ (2.0-3.99 (+))"}
    ]},
    {"smiles": "COc1ccn2nc(NC(=O)CC(C)(C)O)c(C3CCC3)c2c1", "note": "[Example 16, N-(3-cyclobutyl-5-methoxypyrazolo[1,5-a]pyridin-2-yl)-3-hydroxy-3-methylbutanamide]", "values": [
      {"measurement": "QPatch Kv7.2/7.3 Activity", "result": "+/− (1.2-1.99-fold (+/−))"}
    ]},
    {"smiles": "CC(C)(O)CC(=O)Nc1nn2ccc(C(F)(F)F)cc2c1-c1ccc(Cl)cc1", "note": "[Example 17, N-(3-(4-chlorophenyl)-5-(trifluoromethyl)pyrazolo [1,5-a]pyridin-2-yl)-3-hydroxy-3-methylbutanamide]", "values": [
      {"measurement": "QPatch Kv7.2/7.3 Activity", "result": "+ (2.0-3.99 (+))"}
    ]},
    {"smiles": "Cc1ccc(-c2c(NC(=O)CC(C)(C)O)nn3ccc(C(F)(F)F)cc23)cc1", "note": "[Example 18, 3-hydroxy-3-methyl-N-(3-(p-tolyl)-5-(trifluoromethyl)pyrazolo [1,5-a]pyridin-2-yl)butanamide]", "values": [
      {"measurement": "QPatch Kv7.2/7.3 Activity", "result": "+ (2.0-3.99 (+))"}
    ]}
  ]
}
